In data set [1] the test system is Vero E6 cells. The settings on record: African green monkey.
Data set [2] in a line: in vitro. The following applies: African green monkey, CC50 (half-maximal cytotoxic concentration).
In data set [3] the test system is SARS-CoV-2-infected Vero E6 cells. In words: Immunofluorescence assays. The settings on record: IHUMI-6, MOI 0.1, 48 h post-infection, versus infected untreated, p = 0.03. The class given is cell-based, African green monkey.
The subject of data set [4] is SARS-CoV-2 hCoV-19_IPL_France strain. The class given is cell-based. The following applies: Vero E6-TMPRSS2 cells, MOI 0.025, 16 h, increasing doses.
Data set [5] can be described thus: in vitro. The following applies: human.
Data set [6] deals with SARS-CoV-2 BetaCoV/France/IDF0372/2020 strain. Details: species or system K18-hACE2 mouse. The settings on record: mouse, in vivo.
Data set [7] deals with cathepsin B (CTSB). Details: method as in ref 16, 33 = [16]. The following applies: cited from earlier work.
In data set [8] the test system is SARS-CoV-2 hCoV-19_IPL_France strain. The class given is cell-based. The settings on record: wild-type Vero E6 cells, MOI 0.025, 16 h, increasing doses.
For data set [9], the system named is SARS-CoV-2-infected Vero E6 cells. The class given is cell-based. The following applies: 4 µM, 2 h, then IHUMI-6 infection 24 h.
The test system of data set [10] is SARS-CoV-2 IHUMI-6 strain. In words: microbe, parasite or virus in culture. The class given is cell-based.
Data set [11] deals with autophagic flux in Vero E6 cells. As to the kind of experiment: Western blot of autophagy markers LC3-II and p62 with or without Baf A1. The class given is cell-based, African green monkey. The settings on record: uninfected Vero E6 cells, 24 h, with or without Baf A1 for the last 4 h, normalized to GAPDH. Background: Immunoblotting shows a protein as a band on a membrane.
The test system of data set [12] is SARS-CoV-2 IHUMI-6 strain. The class given is cell-based. The following applies: Vero E6 cells, according to the strain used.
In data set [13] the test system is cathepsin L (CTSL). Details: method as in ref 16, 33 = [16]. The following applies: cited from earlier work.
For data set [14], the system named is SARS-CoV-2. Details: method as in ref 28 = [28]. The settings on record: Vero E6 system; read-out: EC50, SARS-CoV-2 cytopathic effect; cited from earlier work. (In general: Damage to the host cells serves as the signal in cytopathic effect assays.)

“Also recorded” adds a separate entry of the source. Like-named read-outs stand apart in the source and are kept apart here.

For `CCN(CC)CCCC(C)Nc1ccnc2cc(Cl)ccc12` (centres unmarked) [Chloroquine, chloroquine], the CC50 in data set [1] and in data set [2] was 73.2 µM throughout.
One may read the EC50 as the concentration needed to bring the measured effect to its halfway point. With `CC(C)(C)NC1CCN(c2cc(NCc3ccc(Cl)cc3)nc3ccccc23)CC1` [GNS561, Ezurpimtrostat], the “LC3B signal (LC3B clusters)” value in [3] is “enhanced”. Further, in data set [4], the “SARS-CoV-2 N protein level compared to untreated” value is listed as “did not alter the N protein level”. Moreover, the CC50 at 48 h in data set [5] was 4.6 µM. Also, in data set [6], the “lung SARS-CoV-2 viral load” value is recorded as “decline in SARS-CoV-2 virions in the lungs; also recorded: downward trend; also recorded: moderate” and the “lung tissue ultrastructure (autophagic vacuoles, multilamellar bodies)” value is “autophagic vacuole accumulation with increased electron density”. Besides, the “enzymatic activity of cathepsin B” value in [7] is recorded as “significantly impair”. The “SARS-CoV-2 N protein level compared to untreated” value in [8] is reported as “did not alter the N protein level”. Further, the “volume (area) of autophagic vacuoles in the cytoplasm” value in [9] is on record as “increase in the volume of autophagic vacuoles”. Moreover, the selectivity index entry in data set [10] was “moderate”. In addition, the EC50 in data set [10] (Severe acute respiratory syndrome coronavirus 2, in Homo sapiens, human lung Calu-3 cells, IHUMI-6 strain, 48 h, read-out: EC50 antiviral activity) came to 1.1 µM. For the same molecule, in data set [11], the “Normalized LC3-II protein expression” value is “increased in a dose-dependent manner” and the p62 protein level result was “The same observation”. Also, the “inhibitory concentration relative to remdesivir” value in data set [12] is 50.5–200 times. Moreover, the “enzymatic activity of cathepsin L” value in data set [13] is “significantly impair”.
Turning to `Cc1ccc(NCCN(C)CCNc2ccnc3cc(Cl)ccc23)c2c(=O)c3ccccc3sc12` [ROC-325], in [14], the EC50 is 3.28 µM.

These data come from PMC8778678 (Viruses, 2022).
